Measurements published in ChEMBL document CHEMBL1201862, “PubChem BioAssay data set” (2004).
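In this assay, cells in 96-well plates receive the compound at five concentrations for 48 hours. Endpoints are linearly interpolated between the surrounding concentrations. GI50: concentration for 50% inhibition of growth.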 Calls of active or inactive are those of the source. No stated cut-off is given here; in the data, active = GI50 up to about 1.1 µM and inactive = higher.

Experiments:
Test in all cases: growth of human tumour cells (NCI), 48 h
SN12C = system: SN12C
UACC-257 = system: UACC-257
MDA-MB-435 = system: MDA-MB-435
M14 = system: M14
IGROV-1 = system: IGROV-1
UACC-62 = system: UACC-62
NCI-H23 = system: NCI-H23
MCF7 = system: MCF7
EKVX = system: EKVX
UO-31 = system: UO-31
HOP-62 = system: HOP-62
SF-539 = system: SF-539
SK-OV-3 = system: SK-OV-3
A549 = system: A549
T47D = system: T47D
SNB-75 = system: SNB-75
MDA-N = system: MDA-N
CAKI-1 = system: CAKI-1
HCC 2998 = system: HCC 2998
RXF 393 = system: RXF 393

Row | Structure (SMILES) | GI50 (SN12C) | GI50 (UACC-257) | GI50 (MDA-MB-435) | GI50 (M14) | GI50 (IGROV-1) | GI50 (UACC-62) | GI50 (NCI-H23) | GI50 (MCF7) | GI50 (EKVX) | GI50 (UO-31) | GI50 (HOP-62) | GI50 (SF-539) | GI50 (SK-OV-3) | GI50 (A549) | GI50 (T47D) | GI50 (SNB-75) | GI50 (MDA-N) | GI50 (CAKI-1) | GI50 (HCC 2998) | GI50 (RXF 393)
1 | N#Cc1nc(C#N)c(NC(=O)c2ccccc2C(=O)O)[nH]1 | > 100 µM (inactive) | > 100 µM (inactive) | > 100 µM (inactive) | > 100 µM (inactive) | > 100 µM (inactive) | > 100 µM (inactive) | > 100 µM (inactive) | > 100 µM (inactive) | > 100 µM (inactive) | > 100 µM (inactive) | > 100 µM (inactive) | > 100 µM (inactive) | > 100 µM (inactive) | > 100 µM (inactive) | > 100 µM (inactive) | > 100 µM (inactive) | > 100 µM (inactive) | > 100 µM (inactive) | – | –
2 | O=C(O)CC(NC(=O)C(F)(F)F)C(=O)NC1Cc2ccccc2OC1=O (centres undefined) | > 100 µM (inactive) | > 100 µM (inactive) | > 100 µM (inactive) | > 100 µM (inactive) | > 100 µM (inactive) | > 100 µM (inactive) | > 100 µM (inactive) | > 100 µM (inactive) | > 100 µM (inactive) | > 100 µM (inactive) | > 100 µM (inactive) | > 100 µM (inactive) | > 100 µM (inactive) | > 100 µM (inactive) | – | > 100 µM (inactive) | > 100 µM (inactive) | > 100 µM (inactive) | > 100 µM (inactive) | > 100 µM (inactive)
3 | CO[C@H]1C=C[C@]23c4cc5c(cc4CN(CC2O)[C@@H]3C1)OCO5 (some centres undefined) | 3.3 µM (inactive) | 3.15 µM (inactive) | 2.81 µM (inactive) | 3.3 µM (inactive) | 1.37 µM (inactive) | 2.18 µM (inactive) | 4.49 µM (inactive) | – | 3.57 µM (inactive) | 2.04 µM (inactive) | – | 2.59 µM (inactive) | 0.388 µM (active) | 3.2 µM (inactive) | 1.56 µM (inactive) | 2.36 µM (inactive) | 3.93 µM (inactive) | 3.59 µM (inactive) | 2.58 µM (inactive) | –
4 | O=C(Cn1nnc(-c2ccccc2)n1)N/N=C/c1cn(Cc2ccc(Cl)cc2Cl)c2ccccc12 | > 100 µM (inactive) | > 100 µM (inactive) | > 100 µM (inactive) | > 100 µM (inactive) | > 100 µM (inactive) | > 100 µM (inactive) | > 100 µM (inactive) | > 100 µM (inactive) | 44.5 µM (inactive) | > 100 µM (inactive) | > 100 µM (inactive) | > 100 µM (inactive) | > 100 µM (inactive) | 51.5 µM (inactive) | 47.2 µM (inactive) | 45.1 µM (inactive) | > 100 µM (inactive) | > 100 µM (inactive) | – | –
5 | CC(CN(C)C)C(=O)c1ccccc1C(=O)O (centres undefined) | 25.9 µM (inactive) | – | 20.1 µM (inactive) | 26.4 µM (inactive) | 44 µM (inactive) | 20.1 µM (inactive) | 26.5 µM (inactive) | 35.6 µM (inactive) | 51.1 µM (inactive) | 47.2 µM (inactive) | 20.6 µM (inactive) | – | 39.4 µM (inactive) | 41.1 µM (inactive) | 37.1 µM (inactive) | – | 29.5 µM (inactive) | 28.2 µM (inactive) | – | 39.4 µM (inactive)
6 | O=C(Nc1nnc(-c2ccc(Cl)cc2)o1)C(SC(=S)N1CCOCC1)c1ccccc1 (centres undefined) | 8.22 µM (inactive) | 33 µM (inactive) | 17.6 µM (inactive) | 16.1 µM (inactive) | 19.6 µM (inactive) | – | 20.9 µM (inactive) | 22.3 µM (inactive) | 14.6 µM (inactive) | 4.97 µM (inactive) | 16.6 µM (inactive) | 16.7 µM (inactive) | 28.1 µM (inactive) | 13.8 µM (inactive) | 21.7 µM (inactive) | 26.4 µM (inactive) | – | 20.3 µM (inactive) | – | 26.9 µM (inactive)
7 | COC12OC3(C4OC41)C(C(=O)O[C@H]3CO[Si](C)(C)C(C)(C)C)C2S(=O)(=O)c1ccccc1 (some centres undefined) | > 4.65 µM (inactive) | > 4.65 µM (inactive) | > 4.65 µM (inactive) | – | – | > 4.65 µM (inactive) | > 100 µM (inactive) | 4.1 µM (inactive) | > 4.65 µM (inactive) | > 4.65 µM (inactive) | > 4.65 µM (inactive) | > 100 µM (inactive) | > 4.65 µM (inactive) | > 4.65 µM (inactive) | > 83.9 µM (inactive) | – | – | 2.71 µM (inactive) | > 100 µM (inactive) | < 0.01 µM (active)
8 | CN(C(=O)[C@@H](NC(=O)OC(C)(C)C)c1ccccc1)[C@H]1CCCC[C@@H]1N1CCCC1 | > 100 µM (inactive) | 72.6 µM (inactive) | > 100 µM (inactive) | > 100 µM (inactive) | > 100 µM (inactive) | > 100 µM (inactive) | > 100 µM (inactive) | > 100 µM (inactive) | > 100 µM (inactive) | > 100 µM (inactive) | > 100 µM (inactive) | > 100 µM (inactive) | > 100 µM (inactive) | > 100 µM (inactive) | > 100 µM (inactive) | – | – | > 100 µM (inactive) | – | –
9 | CC(C)(C)OC(=O)C1/C(=C/CBr)CN1C(=O)OC(C)(C)C (centres undefined) | 12.6 µM (inactive) | 16.3 µM (inactive) | 12.9 µM (inactive) | 16.6 µM (inactive) | 5.5 µM (inactive) | 15.3 µM (inactive) | 10.5 µM (inactive) | 3.76 µM (inactive) | 18 µM (inactive) | 18.8 µM (inactive) | 15.8 µM (inactive) | 18.5 µM (inactive) | 21.1 µM (inactive) | 18.9 µM (inactive) | – | – | 14.7 µM (inactive) | 16.5 µM (inactive) | 16.9 µM (inactive) | –
10 | Cc1cc(C)cc(Nc2nnc3n2S(=O)(=O)c2cc(C)c(Cl)cc2S3)c1 | 5.61 µM (inactive) | 4.35 µM (inactive) | 6.03 µM (inactive) | 8.09 µM (inactive) | 5.43 µM (inactive) | 5.65 µM (inactive) | 2.96 µM (inactive) | 3.77 µM (inactive) | 11.2 µM (inactive) | 7.14 µM (inactive) | 7.31 µM (inactive) | 2.89 µM (inactive) | 14.3 µM (inactive) | 5.01 µM (inactive) | 5.69 µM (inactive) | 3.87 µM (inactive) | – | 7.11 µM (inactive) | 4.8 µM (inactive) | 3.03 µM (inactive)
11 | O=C1C=C2CC[C@H]3[C@@H]4CC[C@H](OC(=O)c5cccc6cc7ccccc7nc56)[C@H]4CC[C@@H]3[C@H]2CC1 | > 100 µM (inactive) | > 100 µM (inactive) | > 100 µM (inactive) | > 100 µM (inactive) | > 100 µM (inactive) | > 100 µM (inactive) | > 100 µM (inactive) | > 100 µM (inactive) | 63.1 µM (inactive) | 79.6 µM (inactive) | > 100 µM (inactive) | > 100 µM (inactive) | > 100 µM (inactive) | > 100 µM (inactive) | – | > 100 µM (inactive) | > 100 µM (inactive) | – | – | –
12 | CCOP(=O)(OCC)C(C(=O)OC)C(=O)C(=O)Nc1ccc(Cl)cc1Cl (centres undefined) | > 100 µM (inactive) | > 100 µM (inactive) | – | > 100 µM (inactive) | > 100 µM (inactive) | > 100 µM (inactive) | > 100 µM (inactive) | – | > 100 µM (inactive) | > 100 µM (inactive) | > 100 µM (inactive) | > 100 µM (inactive) | > 100 µM (inactive) | > 100 µM (inactive) | – | > 100 µM (inactive) | – | > 100 µM (inactive) | > 100 µM (inactive) | 65.3 µM (inactive)
13 | C[C@]12C[C@H](c3ccccc3)Nc3ccccc3N1C(c1ccccc1)=NO2 | > 100 µM (inactive) | 81.5 µM (inactive) | 35.5 µM (inactive) | 49.2 µM (inactive) | > 100 µM (inactive) | 85.1 µM (inactive) | 62.1 µM (inactive) | 52.6 µM (inactive) | 21 µM (inactive) | 41.4 µM (inactive) | > 100 µM (inactive) | > 100 µM (inactive) | > 100 µM (inactive) | > 100 µM (inactive) | – | 51.3 µM (inactive) | 74.1 µM (inactive) | 64.3 µM (inactive) | > 100 µM (inactive) | > 100 µM (inactive)
14 | N#Cc1c(-c2cccc(Cl)c2)cc(-c2ccc(Cl)cc2)nc1N | 17.3 µM (inactive) | 15.3 µM (inactive) | 19.1 µM (inactive) | 19.1 µM (inactive) | 10.1 µM (inactive) | 16.5 µM (inactive) | 17.5 µM (inactive) | 16.3 µM (inactive) | 15.6 µM (inactive) | 14.2 µM (inactive) | 17.3 µM (inactive) | 17.8 µM (inactive) | 18.3 µM (inactive) | 17.5 µM (inactive) | 27 µM (inactive) | – | 20 µM (inactive) | 26.1 µM (inactive) | – | 16.7 µM (inactive)
15 | CCCCCCCCCCn1cccc1/C=C/c1ccc(/C=C/c2cccn2CCCCCCCCCC)cc1 | > 100 µM (inactive) | > 100 µM (inactive) | – | > 100 µM (inactive) | > 100 µM (inactive) | > 100 µM (inactive) | > 100 µM (inactive) | – | > 100 µM (inactive) | 88.7 µM (inactive) | > 100 µM (inactive) | > 100 µM (inactive) | > 100 µM (inactive) | > 100 µM (inactive) | – | > 100 µM (inactive) | – | > 100 µM (inactive) | > 100 µM (inactive) | > 100 µM (inactive)
16 | COc1ccc(C=C(c2ccc(OCc3ccccc3)cc2)c2ccc(OCc3ccccc3)cc2)cc1 | > 100 µM (inactive) | > 100 µM (inactive) | – | > 100 µM (inactive) | > 100 µM (inactive) | > 100 µM (inactive) | > 100 µM (inactive) | – | > 100 µM (inactive) | > 100 µM (inactive) | > 100 µM (inactive) | > 100 µM (inactive) | > 100 µM (inactive) | > 100 µM (inactive) | – | > 100 µM (inactive) | – | > 100 µM (inactive) | > 100 µM (inactive) | > 100 µM (inactive)
